Source: ChEMBL document CHEMBL5233269, “Anticancer potential of spirocompounds in medicinal chemistry: A pentennial expedition” (Eur J Med Chem, 2021)
One block for each compound: values may come before it.

Legend:
MDA-MB-231 = test: Anticancer activity against human MDA-MB-231 cells measured after 48 hrs by MTT assay; assay type: functional, cell-based; settings: MDA-MB-231, 48 h
DU-145 = test: Anticancer activity against human DU-145 cells measured after 48 hrs by MTT assay; assay type: functional, cell-based; settings: DU-145, 48 h
LNCaP = test: Anticancer activity against human LNCaP cells measured after 48 hrs by MTT assay; assay type: functional, cell-based
Ishikawa = test: Anticancer activity against human Ishikawa cells measured after 48 hrs by MTT assay; assay type: functional, cell-based
MCF7 [1] = test: Anticancer activity against human MCF7 cells measured after 48 hrs by MTT assay; assay type: functional, cell-based; settings: MCF7, 48 h
MCF7 [2] = test: Anticancer activity against human MCF7 cells assessed as inhibition of cell growth by MTT assay; assay type: functional, cell-based
HeLa [3] = test: Anticancer activity against human HeLa cells assessed as inhibition of cell growth by MTT assay; assay type: functional, cell-based
A549 [4] = test: Anticancer activity against human A549 cells assessed as inhibition of cell growth by MTT assay; assay type: functional, cell-based
MCF7 [5] = test: Anticancer activity against human MCF7 cells at 10 uM by MTT assay relative to control; assay type: functional
HepG2 [6] = test: Anticancer activity against human HepG2 cells at 200 microg/ml measured after 48 hrs relative to control; assay type: functional
4T1 = test: Anticancer activity against mouse 4T1 cells at 200 microg/ml measured after 48 hrs relative to control; assay type: functional
K562 = test: Antiproliferative activity against human K562 cells assessed as inhibition of cell viability; assay type: functional, cell-based
MCF7 [7] = test: Antiproliferative activity against human MCF7 cells assessed as inhibition of cell viability; assay type: functional, cell-based
HeLa [8] = test: Cytotoxicity against human HeLa cells incubated for 48 hrs by MTT assay; assay type: functional, cell-based
HeLa [9] = test: Cytotoxicity against human HeLa cells incubated for 24 hrs by MTT assay; assay type: functional, cell-based
L02 = test: Antiproliferative activity against human L02 cells by MTT assay; assay type: functional, cell-based
HepG2 [10] = test: Antiproliferative activity against human HepG2 cells by MTT assay; assay type: functional, cell-based
HCT-116 = test: Cytotoxicity against human HCT-116 cells incubated overnight by MTT assay; assay type: functional, cell-based
HepG2 [11] = test: Cytotoxicity against human HepG2 cells incubated overnight by MTT assay; assay type: functional, cell-based
SMMC-7721 = test: Cytotoxicity against human SMMC-7721 cells assessed as inhibition of tumor cell proliferation incubated for 72 hrs by MTT assay; assay type: functional, cell-based; settings: SMMC-7721, 72 h
A549 [12] = test: Cytotoxicity against human A549 cells assessed as inhibition of tumor cell proliferation incubated for 72 hrs by MTT assay; assay type: functional, cell-based; settings: A549, 72 h
MGC-803 = test: Cytotoxicity against human MGC-803 cells assessed as inhibition of tumor cell proliferation incubated for 72 hrs by MTT assay; assay type: functional, cell-based; settings: MGC-803, 72 h
[13] = Anticancer activity against human MCF-10A cells assessed as reduction of cell growth; assay type: toxicity, cell-based
PC-3 = test: Anticancer activity against human PC-3 cells assessed as reduction of cell growth; assay type: functional, cell-based
A-431 = test: Anticancer activity against human A-431 cells; assay type: functional, cell-based
MCF7 [14] = test: Anticancer activity against human MCF7 cells assessed as reduction of cell growth; assay type: functional, cell-based
Ehrlich = test: Antitumor activity against mouse Ehrlich ascites carcinoma xenografted in mouse model assessed tumor growth inhibition relative to control; assay type: functional; design: scale not given: the % may be the effect or the level left
[15] = target: T1, Amine oxidase [flavin-containing] A (Rattus norvegicus, UniProt P21396); test: Inhibition of rat brain MAO-A relative to control; assay type: tissue-based
T1 sequence (P21396 whole entry): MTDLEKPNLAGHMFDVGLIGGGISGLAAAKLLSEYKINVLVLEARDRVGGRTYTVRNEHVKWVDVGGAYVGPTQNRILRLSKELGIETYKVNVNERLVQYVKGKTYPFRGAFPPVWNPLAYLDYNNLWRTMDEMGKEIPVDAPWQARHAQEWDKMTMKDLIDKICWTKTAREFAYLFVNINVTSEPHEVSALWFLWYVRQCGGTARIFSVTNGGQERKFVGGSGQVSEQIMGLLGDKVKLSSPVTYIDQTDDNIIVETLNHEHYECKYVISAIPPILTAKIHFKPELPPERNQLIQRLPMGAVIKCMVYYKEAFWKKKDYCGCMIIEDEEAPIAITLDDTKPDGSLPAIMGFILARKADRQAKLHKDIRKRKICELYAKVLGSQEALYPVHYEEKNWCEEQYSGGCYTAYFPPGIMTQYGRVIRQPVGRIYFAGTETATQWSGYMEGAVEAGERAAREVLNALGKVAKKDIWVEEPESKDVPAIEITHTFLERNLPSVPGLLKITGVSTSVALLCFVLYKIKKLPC

Sarcoma-180 = test: Antitumor activity against mouse Sarcoma-180 xenografted in mouse model assessed tumor growth inhibition relative to control; assay type: functional; design: scale not given: the % may be the effect or the level left
A549 [16] = test: Antiproliferative activity against human A549 cells measured after 48 hrs by MTT assay; assay type: functional, cell-based; settings: A549, 48 h
HT-29 = test: Antiproliferative activity against human HT-29 cells measured after 48 hrs by MTT assay; assay type: functional, cell-based; settings: HT-29, 48 h
[17] = Antiproliferative activity against human […] cells measured after 48 hrs by MTT assay; assay type: functional, cell-based
HeLa [18] = test: Antiproliferative activity against human HeLa cells measured after 48 hrs by MTT assay; assay type: functional, cell-based
MCF7 [19] = test: Antiproliferative activity against human MCF7 cells measured after 48 hrs by MTT assay; assay type: functional, cell-based; settings: MCF7, 48 h
HL-60 = test: Antiproliferative activity against human HL-60 cells measured after 48 hrs by MTT assay; assay type: functional, cell-based; settings: HL-60, 48 h
HepG2 [20] = test: Antiproliferative activity against human HepG2 cells measured after 48 hrs by MTT assay; assay type: functional, cell-based; settings: HepG2, 48 h
SW480 = test: Antiproliferative activity against human SW480 cells measured after 48 hrs by MTT assay; assay type: functional, cell-based; settings: SW480, 48 h
[21] = Inhibition of cell proliferation in human MCF-10A cells at 50 uM by MTT colorimetric cell viability assay relative to control; assay type: toxicity, cell-based
MCF7 [22] = test: Inhibition of cell proliferation in human MCF7 cells; assay type: functional, cell-based

IC50 (K562): 15.8 µM
IC50 (MCF7 [7]): 15.5 µM
Compound: O=C1/C(=C/c2ccc(Br)cc2)CCCC12[C@@H]1CCCN1[C@@]1(C(=O)Nc3ccccc31)[C@H]2c1ccc(Br)cc1 (stereo partly specified)

IC50 (HepG2 [10]): 7.9 µM
Compound: O=C1C(=O)C2C(N=C3N=NNN3C23C(=O)Nc2c(C(F)(F)F)cccc23)c2ccccc21 (stereo unspecified)
IC50 (L02): 49.9 µM

IC50 (PC-3): 73.1 µM
IC50 (A-431): 42.4 µM
IC50 (MCF7 [14]): 9.88 µM
Compound: CC1(C)CC(=O)C2C(C1)N(c1ccccn1)C(=O)C21c2ccccc2NC2C(=O)CC(C)(C)CC21 (stereo unspecified)
IC50 [13]: 34.6 µM

IC50 (PC-3): 86.1 µM
IC50 (A-431): 55.6 µM
IC50 (MCF7 [14]): 9.62 µM
Compound: COc1cccc(N2C(=O)C3(c4ccccc4NC4C(=O)CC(C)(C)CC43)C3C(=O)CC(C)(C)CC32)c1 (stereo unspecified)
IC50 [13]: 48.1 µM

IC50 (MDA-MB-231): 6.88 µM
IC50 (DU-145): 2.18 µM
IC50 (LNCaP): 0.67 µM
IC50 (MCF7 [1]): 0.82 µM
Compound: O=C1NC2(C3=C(C(=O)C4C=CC=CC4C3=O)c3ccccc32)c2ccccc21 (stereo unspecified)
IC50 (Ishikawa): 1.9 µM

EC50 (MCF7 [22]): 4.01 µM
Compound: COc1cc(OC)c(C2NCCC23C(=O)Nc2ccccc23)cc1OC (stereo unspecified)
inhibition at 50 µM [21]: 0.8%

Second part, the compound before the results:

Compound: O=C1NC2(C3=C(C(=O)C4C=CC=CC4C3=O)c3cc(Cl)ccc32)c2ccccc21 (stereo unspecified)
IC50 (MDA-MB-231): 17.6 µM
IC50 (DU-145): 1.68 µM
IC50 (LNCaP): 5.34 µM
IC50 (Ishikawa): 1.39 µM
IC50 (MCF7 [1]): 5.11 µM

Compound: O=C1Nc2ccc(Br)cc2C12c1c(c3ccccc3oc1=O)N(c1ccc(N3CCOCC3)c(F)c1)c1c2c(=O)oc2ccccc12
IC50 (MCF7 [2]): 9.56 µM
IC50 (HeLa [3]): 18.1 µM
IC50 (A549 [4]): 22.2 µM

Compound: COC(=O)c1[nH]nc2c1C1(C(=O)N(C(C)=O)c3ccccc31)C(C#N)=C(N)O2 (stereo unspecified)
inhibition at 10 µM (MCF7 [5]): 23.2%

Compound: Cc1ccc(C(=O)[C@H]2[C@]3(C(=O)Nc4ccc(F)cc43)[C@@H]3c4ccccc4CCN3[C@@]23C(=O)Nc2ccc(Cl)cc23)cc1
inhibition at 200 µg/mL (HepG2 [6]): 73.5%
inhibition at 200 µg/mL (4T1): 33.3%

Compound: Cc1ccc2c(c1)[C@]1(C(=O)N2)[C@@H](C(=O)c2ccccc2)[C@]2(C(=O)Nc3ccccc32)[C@@H]2c3ccccc3CCN21
inhibition at 200 µg/mL (HepG2 [6]): 66.7%
inhibition at 200 µg/mL (4T1): 20.8%

Compound: Cc1cn(CN2C(=O)C3(c4ccccc42)C(C(=O)c2ccc(F)cc2)C3C(=O)c2ccc(Cl)cc2)nn1 (stereo unspecified)
IC50 (HeLa [8]): 6.3 µM
IC50 (HeLa [9]): 11.2 µM

Compound: O=C(/C=C/c1ccc(Br)cc1)[C@H]1[C@H](c2ccc(Br)cc2)C2CSCN2[C@]12C(=O)Nc1ccccc12 (stereo partly specified)
IC50 (HCT-116): 3 µM
IC50 (HepG2 [11]): 0.8 µM

Compound: COc1ccc(C(=O)[C@H]2[C@]3(C(=O)Nc4ccc(Cl)cc43)[C@@H]3c4ccccc4CCN3[C@@]23C(=O)Nc2ccc(Cl)cc23)cc1
inhibition at 200 µg/mL (HepG2 [6]): 70.1%
inhibition at 200 µg/mL (4T1): 23.2%

Compound: C[C@]12CC[C@H](O)CC1=CCC1C2CC[C@@]2(C)C1CC[C@@H]2C1=CC2(C(=O)N(Cc3ccc(Cl)c(Cl)c3)c3ccccc32)C(C#N)=C(N)N1 (stereo partly specified)
IC50 (SMMC-7721): > 128 µM
IC50 (A549 [12]): > 128 µM
IC50 (MGC-803): > 128 µM

Compound: CC(=O)N1C(=O)C2(C(C#N)=C(N)Oc3n[nH]c(C)c32)c2ccccc21 (stereo unspecified)
inhibition at 10 µM (MCF7 [5]): 26.5%

Compound: CCn1c(SCC(=O)Nc2cccc(C(F)(F)F)c2)nc2c(c1=O)C1(CCCCC1)Cc1ccccc1-2
Activity (Ehrlich): 70%
inhibition (INH) [15]: 15%
Activity (Sarcoma-180): 42%

Compound: CCn1c(SCC(=O)Nc2ccccc2)nc2c(c1=O)C1(CCCCC1)Cc1ccccc1-2
Activity (Ehrlich): 75%
inhibition (INH) [15]: 32%
Activity (Sarcoma-180): 55%

Compound: CC(C)CCC[C@@H](C)[C@@H]1CCC2C3C[C@@]4(N=C5C=CC(Cl)=CN5/C4=N\Cc4ccccc4)C4C[C@@H](Cl)CC[C@]4(C)C3CC[C@@]21C (stereo partly specified)
IC50 (A549 [16]): 3.43 µM
IC50 (HT-29): 4.63 µM
IC50 [17]: 4.67 µM
IC50 (HeLa [18]): 5.23 µM
IC50 (MCF7 [19]): 3.24 µM
IC50 (HL-60): 5.17 µM
IC50 (HepG2 [20]): 5.37 µM
IC50 (SW480): 2.33 µM
